The source made the active and inactive calls.
What was measured:
Beta-galactosidase = Beta-galactosidase (Escherichia coli, UniProt Q8VNN2); test: Dose response counterscreen for EBI2 assay utilizing the enzyme, b-galactosidase.; format: functional
[1] = cytotoxicity in HEK293 background cells – cell-based, dry powder, set 2, counter-screen for EBV LMP1 inhibitor project, dose response (AID 624374); format: functional
[2] = biological target: Adenosylmethionine-8-amino-7-oxononanoate aminotransferase (Mycobacterium tuberculosis, UniProt P9WQ81); test: Mycobacterium tuberculosis BioA enzyme inhibitor Measured in Biochemical System Using Plate Reader - 2163-02_Inhibitor_Dose_CherryPick_Activity.; format: functional, Mycobacterium tuberculosis UT205
Adenosylmethionine-8-amino-7-oxononanoate aminotransferase, sequence (P9WQ81 whole entry): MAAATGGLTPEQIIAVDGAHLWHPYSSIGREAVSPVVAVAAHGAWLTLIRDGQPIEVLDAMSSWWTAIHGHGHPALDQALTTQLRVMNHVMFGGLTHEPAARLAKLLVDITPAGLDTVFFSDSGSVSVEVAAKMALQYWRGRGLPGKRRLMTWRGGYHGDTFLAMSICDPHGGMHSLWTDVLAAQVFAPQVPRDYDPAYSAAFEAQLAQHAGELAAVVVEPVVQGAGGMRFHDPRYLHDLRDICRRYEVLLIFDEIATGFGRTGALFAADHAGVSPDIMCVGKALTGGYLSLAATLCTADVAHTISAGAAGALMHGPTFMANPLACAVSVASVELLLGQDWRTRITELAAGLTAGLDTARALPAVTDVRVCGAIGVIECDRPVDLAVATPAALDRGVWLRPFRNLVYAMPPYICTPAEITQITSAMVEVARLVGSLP

Mu-type opioid receptor = Mu-type opioid receptor (Homo sapiens, UniProt P35372); format: functional, cell-based;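 also: U2OS cells with beta-arrestin recruitment to OPRM1 by beta-gal complementation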
Mu-type opioid receptor, sequence (P35372 whole entry): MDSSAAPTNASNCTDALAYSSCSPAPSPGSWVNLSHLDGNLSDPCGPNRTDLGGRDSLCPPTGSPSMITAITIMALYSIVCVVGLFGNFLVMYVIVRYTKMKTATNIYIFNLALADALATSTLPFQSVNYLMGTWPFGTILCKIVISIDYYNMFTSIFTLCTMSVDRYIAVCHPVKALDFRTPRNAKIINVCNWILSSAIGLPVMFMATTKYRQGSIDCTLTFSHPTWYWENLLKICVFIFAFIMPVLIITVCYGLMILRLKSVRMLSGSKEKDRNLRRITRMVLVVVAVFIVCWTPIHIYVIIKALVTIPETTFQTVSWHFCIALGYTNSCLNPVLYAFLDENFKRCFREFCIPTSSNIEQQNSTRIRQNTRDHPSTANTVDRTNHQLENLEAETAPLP

[3] = biological target: 5-hydroxytryptamine receptor 2A (Mus musculus, UniProt P35363); format: functional, cell-based;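 also: CHO-K1 cells with tagged receptor and beta-arrestin; agonist potency measured as compound-induced activation of the receptor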
5-hydroxytryptamine receptor 2A, sequence (P35363 whole entry): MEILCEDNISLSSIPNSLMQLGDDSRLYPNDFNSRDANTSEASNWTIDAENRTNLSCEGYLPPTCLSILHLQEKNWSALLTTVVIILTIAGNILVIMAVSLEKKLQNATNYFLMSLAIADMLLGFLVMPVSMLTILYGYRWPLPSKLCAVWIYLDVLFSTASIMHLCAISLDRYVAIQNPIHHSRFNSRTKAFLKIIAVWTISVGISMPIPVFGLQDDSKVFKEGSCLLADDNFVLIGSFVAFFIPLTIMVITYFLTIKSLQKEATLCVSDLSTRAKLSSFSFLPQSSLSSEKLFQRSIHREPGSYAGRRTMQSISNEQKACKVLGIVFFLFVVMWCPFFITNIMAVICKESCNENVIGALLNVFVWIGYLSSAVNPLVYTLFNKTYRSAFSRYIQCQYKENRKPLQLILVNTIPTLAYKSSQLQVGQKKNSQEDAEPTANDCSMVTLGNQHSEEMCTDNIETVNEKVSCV

[4] = reduction of Shn3 3'UTR-driven luciferase in osteoblasts – cell-based, Clone20 osteoblasts, firefly luciferase, cherry-picked, dose response (AID 624132); format: functional;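 also: firefly luciferase luminescence from reporter carrying the Shn3 3'UTR in osteoblasts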
Streptokinase A = biological target: T1, Streptokinase A (Streptococcus pyogenes serotype M1, UniProt P10520); test: viability-normalized secreted streptokinase activity reduction – plasminogen activation absorbance, OD405, dose response (AID 1914); format: functional, Streptococcus pyogenes M1 GAS;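 also: secreted streptokinase activity via plasminogen activation per viability signal from cell pellet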
T1 sequence (P10520 whole entry): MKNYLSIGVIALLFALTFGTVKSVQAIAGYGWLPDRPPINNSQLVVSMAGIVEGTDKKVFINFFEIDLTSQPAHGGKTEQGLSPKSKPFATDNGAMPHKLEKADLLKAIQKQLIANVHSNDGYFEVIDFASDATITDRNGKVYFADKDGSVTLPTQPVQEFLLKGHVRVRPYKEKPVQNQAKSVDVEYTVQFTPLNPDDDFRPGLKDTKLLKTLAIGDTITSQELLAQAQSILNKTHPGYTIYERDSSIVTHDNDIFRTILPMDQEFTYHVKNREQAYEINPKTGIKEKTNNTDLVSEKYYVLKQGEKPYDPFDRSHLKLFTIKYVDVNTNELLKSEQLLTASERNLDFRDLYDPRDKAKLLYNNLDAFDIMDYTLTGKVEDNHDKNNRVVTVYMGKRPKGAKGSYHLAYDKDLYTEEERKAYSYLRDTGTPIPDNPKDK

[5] = biological target: Heat shock protein HSP 90-alpha (Homo sapiens, UniProt P07900); format: functional, organism-based
[6] = system: Streptococcus sp. 'group A'; test: Streptococcus pyogenes SK(-)GAS viability under kanamycin – luminescence, BacTiterGlo, confirmation, counter-screen for streptokinase expression inhibitor project, dose response (AID 1900); format: functional, organism-based
Streptococcus = test: GAS UMAA2166 growth inhibition – luminescence, BacTiterGlo, counter-screen for streptokinase expression inhibitor project, dose response (AID 1915); format: functional, organism-based;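 also: potency for reduction of bacterial viability or growth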

Beta-galactosidase, sequence (Q8VNN2 whole entry): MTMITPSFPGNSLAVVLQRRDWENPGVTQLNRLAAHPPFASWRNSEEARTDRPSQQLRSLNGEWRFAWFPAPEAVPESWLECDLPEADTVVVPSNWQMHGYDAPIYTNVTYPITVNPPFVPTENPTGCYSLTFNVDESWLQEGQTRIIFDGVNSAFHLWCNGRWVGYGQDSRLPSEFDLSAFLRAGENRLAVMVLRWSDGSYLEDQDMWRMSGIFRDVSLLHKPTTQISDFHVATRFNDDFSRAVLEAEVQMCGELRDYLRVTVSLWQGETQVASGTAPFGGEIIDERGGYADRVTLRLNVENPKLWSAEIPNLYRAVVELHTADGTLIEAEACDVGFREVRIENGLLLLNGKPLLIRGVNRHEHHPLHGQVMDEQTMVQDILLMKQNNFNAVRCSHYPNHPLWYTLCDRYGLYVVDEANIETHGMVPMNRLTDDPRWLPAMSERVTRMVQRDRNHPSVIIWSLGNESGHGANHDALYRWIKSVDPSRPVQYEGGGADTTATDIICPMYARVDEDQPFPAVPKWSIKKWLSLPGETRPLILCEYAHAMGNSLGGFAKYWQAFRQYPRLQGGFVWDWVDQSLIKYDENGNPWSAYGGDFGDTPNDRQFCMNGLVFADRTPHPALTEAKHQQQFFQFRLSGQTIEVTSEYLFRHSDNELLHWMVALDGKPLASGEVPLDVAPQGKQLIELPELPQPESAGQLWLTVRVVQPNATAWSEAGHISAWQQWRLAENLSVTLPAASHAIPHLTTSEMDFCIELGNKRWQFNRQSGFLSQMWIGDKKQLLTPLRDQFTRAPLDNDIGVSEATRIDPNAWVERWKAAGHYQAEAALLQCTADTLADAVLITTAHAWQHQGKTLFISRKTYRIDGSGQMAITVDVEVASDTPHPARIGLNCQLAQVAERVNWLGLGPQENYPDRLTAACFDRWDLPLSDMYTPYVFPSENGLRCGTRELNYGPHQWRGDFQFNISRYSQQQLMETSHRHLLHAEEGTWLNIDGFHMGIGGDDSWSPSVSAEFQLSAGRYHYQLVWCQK

## CCOC(=O)C1=C(Nc2ccc(OC)cc2)S/C(=C\c2cc(OC)c(OC)c(OC)c2)C1=O
Beta-galactosidase
  IC50: > 80 µM (inactive)

## CO[C@H]1CN(C)C(=O)c2ccc(NC(=O)C3CC3)cc2OC[C@H](C)N(C(=O)c2ccccn2)C[C@H]1C
[1]
  AbsAC35: 207.94 µM

## CCC(=O)N1CC[C@@H]2[C@H]1c1cc(-c3cccc(F)c3)ccc1N(C)[C@@H]2CO
[2]
  AC50: 2.44 µM (active)

## O=C(NCC(c1ccco1)N1CCN(c2ccccc2F)CC1)C1CCCCC1 (configuration not stated)
Mu-type opioid receptor
  EC50: 92.5 µM (inactive)
[3]
  EC50: 76.1 µM (inactive)

## COc1cccc(-c2nc(NC3CCCC3)c3ccccc3n2)c1O
[4]
  AC50: 25 µM (active)
Streptokinase A
  EC50: 78.1 µM (inconclusive)
[5]
  AC50: 3.8 µM (active)
Mu-type opioid receptor
  EC50: 92.4 µM (inactive)
[6]
  EC50: 5.91 µM (active)
Streptococcus
  EC50: > 150 µM (not active)
[3]
  EC50: 7.62 µM (active)
